The record followed here is patent publication US20240238423A9, “TETRAHYDROISOQUINOLINE HETEROBIFUNCTIONAL BCL-XL DEGRADERS” (Treeline Biosciences, Inc., priority 2022, published 2024).

Like-named read-outs stand apart in the source and are kept apart here.

The assay concerns the target T1, Human BCL-XL protein (N-terminal HiBiT tagged BCL-XL in HT1080 cells) (Homo sapiens, UniProt Q07817).
T1 construct: expressed in transfected cells; host or cells: HT-1080 (ATCC CCL-121), stably transduced with lentivirus pLV-UBC-N-HiBiT-BCL-XL-PGK-puro and selected with puromycin
Briefly: HiBiT based degradation assay. The conditions noted are these: HT1080 cells expressing HiBiT-BCL-XL; for Ymin (24 h) / Ymin (6 h): BCL-XL degradation normalized with DMSO control; for DC50: BCL-XL degradation. In kind it is cell-based. Summed up:
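This HiBiT degradation assay measured loss of BCL-XL in HT1080 cells that stably express an N-terminal HiBiT-BCL-XL fusion delivered by lentivirus. Cells were added to compound-spotted 384-well plates, and luminescence was read on a PHERAstar FSX reader. Signal was expressed relative to DMSO controls, curves were fitted by four-parameter logistic regression, and for hook-shaped curves the Ymin point served as the bottom plateau when calculating EC50.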
A general note: With HiBiT, luminescence reflects the tagged protein that the partner subunit can reach.

T1 sequence (Q07817 whole entry): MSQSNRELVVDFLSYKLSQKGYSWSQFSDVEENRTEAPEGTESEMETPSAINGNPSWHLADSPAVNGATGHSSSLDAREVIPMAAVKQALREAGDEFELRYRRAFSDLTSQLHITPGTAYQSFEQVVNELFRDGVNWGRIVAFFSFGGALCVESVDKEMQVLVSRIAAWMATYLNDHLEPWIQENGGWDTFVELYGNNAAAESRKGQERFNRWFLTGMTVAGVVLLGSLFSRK

For `Cc1c(OCCCC[C@H]2CCCN(CC(=O)Nc3ccc4c(C5CCC(=O)NC5=O)nn(C)c4c3)C2)cccc1-c1ccc(N2CCc3cccc(C(=O)Nc4nc5ccccc5s4)c3C2)nc1C(=O)O` (stereo partly drawn) [Compound 202a, 6-[8-(1,3-benzothiazol-2-ylcarbamoyl)-3,4-dihydro-1H-isoquinolin-2-yl]-3-[3-[4-[(3S)-1-[2-[[3-(2,6-dioxo-3-piperidyl)-1-methyl-indazol-6-yl]amino]-2-oxo-ethyl]-3-piperidyl]butoxy]-2-methyl-phenyl]pyridine-2-carboxylic acid], the “Ymin (24 h)” value (24 h) is “A (Ymin < 50%)”. Moreover, the DC50 (24 h, read-out: EC50 (24 h)) is < 100 nM.

For `Cc1c(OCCCC[C@@H]2CCCN(CC(=O)Nc3ccc4c(C5CCC(=O)NC5=O)nn(C)c4c3)C2)cccc1-c1ccc(N2CCc3cccc(C(=O)Nc4nc5ccccc5s4)c3C2)nc1C(=O)O` (stereo partly drawn) [Compound 202b, 6-[8-(1,3-benzothiazol-2-ylcarbamoyl)-3,4-dihydro-1H-isoquinolin-2-yl]-3-[3-[4-[(3R)-1-[2-[[3-(2,6-dioxo-3-piperidyl)-1-methyl-indazol-6-yl]amino]-2-oxo-ethyl]-3-piperidyl]butoxy]-2-methyl-phenyl]pyridine-2-carboxylic acid], the “Ymin (24 h)” value (24 h) is “A (Ymin < 50%)”. For the same molecule, the DC50 (24 h, read-out: EC50 (24 h)) is < 100 nM.

With `Cc1c(OCCCCC2CCN(CC(=O)Nc3ccc4c(C5CCC(=O)NC5=O)nn(C)c4c3)CC2)cccc1-c1ccc(N2CCc3cccc(C(=O)Nc4nc5ccccc5s4)c3C2)nc1C(=O)O` (stereo not drawn) [Compound 203, 6-(8-(benzo[d]thiazol-2-ylcarbamoyl)-3,4-dihydroisoquinolin-2(1H)-yl)-3-(3-(4-(1-(2-((3-(2,6-dioxopiperidin-3-yl)-1-methyl-1H-indazol-6-yl)amino)-2-oxoethyl)piperidin-4-yl)butoxy)-2-methylphenyl)picolinic acid], the “Ymin (6 h)” value (6 h) is recorded as “B (50% ≤ Ymin < 70%)”. Besides, the “Ymin (24 h)” value (24 h) is “A (Ymin < 50%)”. Besides, the DC50 is < 100 nM (6 h, read-out: EC50 (6 h)) and < 100 nM (24 h, read-out: EC50 (24 h)).

With `Cc1c(O[C@H]2CC[C@H](CCCCN3CCN(c4cccc5c(C6CCC(=O)NC6=O)nn(C)c45)CC3)CC2)cccc1-c1ccc(N2CCc3cccc(C(=O)Nc4nc5ccccc5s4)c3C2)nc1C(=O)O` (stereo partly drawn) [Compound 204a, 6-(8-(benzo[d]thiazol-2-ylcarbamoyl)-3,4-dihydroisoquinolin-2(1H)-yl)-3-(3-(((1s,4r)-4-(4-(4-(3-(2,6-dioxopiperidin-3-yl)-1-methyl-1H-indazol-7-yl)piperazin-1-yl)butyl)cyclohexyl)oxy)-2-methylphenyl)picolinic acid], for the setting “24 h”, the “Ymin (24 h)” value is reported as “B (50% ≤ Ymin < 70%)”. Besides, the DC50 (24 h, read-out: EC50 (24 h)) was < 100 nM.

Turning to `Cc1c(OCCCCCCCCN2CCN(c3ccc4c(C5CCC(=O)NC5=O)nn(C)c4c3)CC2)cccc1-c1ccc(N2CCc3cccc(C(=O)Nc4nc5ccccc5s4)c3C2)nc1C(=O)O` (stereo not drawn) [Compound 205, 6-[8-(1,3-benzothiazol-2-ylcarbamoyl)-3,4-dihydro-1H-isoquinolin-2-yl]-3-[3-[8-[4-[3-(2,6-dioxo-3-piperidyl)-1-methyl-indazol-6-yl]piperazin-1-yl]octoxy]-2-methyl-phenyl]pyridine-2-carboxylic acid], the “Ymin (6 h)” value (6 h) was “B (50% ≤ Ymin < 70%)”. Further, the “Ymin (24 h)” value (24 h) is on record as “A (Ymin < 50%)”. The DC50 was < 100 nM (6 h, read-out: EC50 (6 h)) and < 100 nM (24 h, read-out: EC50 (24 h)).

Turning to `Cc1c(OCCCCCCCN2CCN(c3cccc4c(C5CCC(=O)NC5=O)nn(C)c34)CC2)cccc1-c1ccc(N2CCc3cccc(C(=O)Nc4nc5ccccc5s4)c3C2)nc1C(=O)O` (stereo not drawn) [Compound 206, 6-[8-(1,3-benzothiazol-2-ylcarbamoyl)-3,4-dihydro-1H-isoquinolin-2-yl]-3-[3-[7-[4-[3-(2,6-dioxo-3-piperidyl)-1-methyl-indazol-7-yl]piperazin-1-yl]heptoxy]-2-methyl-phenyl]pyridine-2-carboxylic acid], the “Ymin (6 h)” value (6 h) is recorded as “C (Ymin ≥ 70%)”. Besides, the “Ymin (24 h)” value (24 h) is “B (50% ≤ Ymin < 70%)”. The DC50 is, setting by setting: (6 h, read-out: EC50 (6 h)) 1000 to 10000 nM; (24 h, read-out: EC50 (24 h)) < 100 nM.

On to `Cc1c(OCCC[C@@H]2CCCN(CC(=O)Nc3ccc4c(C5CCC(=O)NC5=O)nn(C)c4c3)C2)cccc1-c1ccc(N2CCc3cccc(C(=O)Nc4nc5ccccc5s4)c3C2)nc1C(=O)O` (stereo partly drawn) [Compound 207a, 6-(8-(benzo[d]thiazol-2-ylcarbamoyl)-3,4-dihydroisoquinolin-2(1H)-yl)-3-(3-(3-((3S)-1-(2-((3-(2,6-dioxopiperidin-3-yl)-1-methyl-1H-indazol-6-yl)amino)-2-oxoethyl)piperidin-3-yl)propoxy)-2-methylphenyl) picolinic acid], for which, under “24 h”, the “Ymin (24 h)” value is on record as “A (Ymin < 50%)”. In addition, the DC50 (24 h, read-out: EC50 (24 h)) was < 100 nM.

`Cc1c(OCCC[C@H]2CCCN(CC(=O)Nc3ccc4c(C5CCC(=O)NC5=O)nn(C)c4c3)C2)cccc1-c1ccc(N2CCc3cccc(C(=O)Nc4nc5ccccc5s4)c3C2)nc1C(=O)O` (stereo partly drawn) [Compound 207b, 6-(8-(benzo[d]thiazol-2-ylcarbamoyl)-3,4-dihydroisoquinolin-2(1H)-yl)-3-(3-(3-((3R)-1-(2-((3-(2,6-dioxopiperidin-3-yl)-1-methyl-1H-indazol-6-yl)amino)-2-oxoethyl)piperidin-3-yl)propoxy)-2-methylphenyl)picolinic acid]: the “Ymin (6 h)” value (6 h) was “B (50% ≤ Ymin < 70%)”. Also, where the note is “24 h”, the “Ymin (24 h)” value was “A (Ymin < 50%)”. The DC50 (6 h, read-out: EC50 (6 h)) is < 100 nM and the DC50 (24 h, read-out: EC50 (24 h)) is < 100 nM.

In the case of `Cc1c(Oc2ccc(CCN3CCN(c4ccc5c(C6CCC(=O)NC6=O)nn(C)c5c4)CC3)cc2)cccc1-c1ccc(N2CCc3cccc(C(=O)Nc4nc5ccccc5s4)c3C2)nc1C(=O)O` (stereo not drawn) [Compound 208, 6-[8-(1,3-benzothiazol-2-ylcarbamoyl)-3,4-dihydro-1H-isoquinolin-2-yl]-3-[3-[4-[2-[4-[3-(2,6-dioxo-3-piperidyl)-1-methyl-indazol-6-yl]piperazin-1-yl]ethyl]phenoxy]-2-methyl-phenyl]pyridine-2-carboxylic acid], the “Ymin (24 h)” value (24 h) is on record as “A (Ymin < 50%)”. Besides, the DC50 (24 h, read-out: EC50 (24 h)) was < 100 nM.

With `Cc1c(OCC(F)(F)CN2C[C@@H](C)N(CC(=O)Nc3cccc4c(C5CCC(=O)NC5=O)nn(C)c34)[C@@H](C)C2)cccc1-c1ccc(N2CCc3cccc(C(=O)Nc4nc5ccccc5s4)c3C2)nc1C(=O)O` (stereo partly drawn) [Compound 209a, 6-[8-(1,3-benzothiazol-2-ylcarbamoyl)-3,4-dihydro-1H-isoquinolin-2-yl]-3-[3-[3-[(3R,5S)-4-[2-[[3-(2,6-dioxo-3-piperidyl)-1-methyl-indazol-7-yl]amino]-2-oxo-ethyl]-3,5-dimethyl-piperazin-1-yl]-2,2-difluoro-propoxy]-2-methyl-phenyl]pyridine-2-carboxylic acid], under “24 h”, the “Ymin (24 h)” value is recorded as “B (50% ≤ Ymin < 70%)”. For the same molecule, where the note is “24 h, read-out: EC50 (24 h)”, the DC50 lay within 100 to 1000 nM.

For the molecule `Cc1c(O[C@H]2CC[C@H](CCN3CCN(c4ccc5c(C6CCC(=O)NC6=O)nn(C)c5c4)CC3)CC2)cccc1-c1ccc(N2CCc3cccc(C(=O)Nc4nc5ccccc5s4)c3C2)nc1C(=O)O` (stereo partly drawn) [Compound 211a, 6-(8-(benzo[d]thiazol-2-ylcarbamoyl)-3,4-dihydroisoquinolin-2(1H)-yl)-3-(3-(((1r,4r)-4-(2-(4-(3-(2,6-dioxopiperidin-3-yl)-1-methyl-1H-indazol-6-yl)piperazin-1-yl)ethyl)cyclohexyl)oxy)-2-methylphenyl)picolinic acid], the “Ymin (24 h)” value (24 h) is reported as “B (50% ≤ Ymin < 70%)”. Besides, where the note is “24 h, read-out: EC50 (24 h)”, the DC50 is < 100 nM.
